The text below walks through data of patent publication US7375232B2, “Ortho-heterocyclic substituted aryl amides for controlling invertebrate pests” (E.I. du Pont de Nemours and Company, priority 2001, dated 2008).

The structures appear in SMILES notation.

Turning to `Cc1cc(Cl)cc(-n2cccn2)c1NC(=O)c1cc(C(F)(F)F)nn1-c1ccccc1Cl` [Compound 16], the melting point was in the range of 87 to 89 °C.

Usually melting point stands for the temperature of the solid-liquid transition.
